Measured values reported in the supplement of paper PMC4862054.

Key:
Details in all cases: incubation time: 72 h
[1] = test system: CAL-120; test: normalised viability (% of control), CellTiter-Blue; higher = more viable cells (about 100 = DMSO control)
How it was run: (§1)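 Normalised viability is given for a single listed concentration of the series. In 384-well plates, breast cancer cell lines were incubated 72 h with compound, then read with CellTiter-Blue (2 h, 37 °C) at 560/590 nm. Per-plate scaling set vehicle to 100 and a positive kill control to 0, with Z'-factor quality control.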

[2] = test system: SK-BR-3; test: as above
How it was run: as §1

[3] = test system: BT-474; test: drug sensitivity score (DSS), CellTiter-Glo (DSS (AUC-based score)); higher = stronger drug effect (viability inhibition or cytotoxicity); extreme values may be limits of the assay
How it was run: (§2)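 Using 20 µl of cell suspension per well, breast cancer cell lines were seeded into 384-well plates pre-loaded with compound at 5 concentrations in 10-fold steps across a compound-specific 10,000-fold range. Incubation lasted 72 h, after which CellTox Green fluorescence at 485/520 nm and then CellTiter-Glo luminescence, following 10 min at room temperature, were recorded. Each plate was normalised to 0.1 % DMSO and a positive kill control before the drug sensitivity score was derived from the area under the fitted dose-response curve.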

[4] = test system: CAL-120; test: as above
How it was run: as §2

[5] = test system: CAL-51; test: as above
How it was run: as §2

[6] = test system: HCC1937; test: as above
How it was run: as §2

[7] = test system: HDQ-P1; test: as above
How it was run: as §2

[8] = test system: DU-4475; test: as above
How it was run: as §2

[9] = test system: MDA-MB-231; test: as above
How it was run: as §2

[10] = test system: MDA-MB-468; test: as above
How it was run: as §2

[11] = test system: BT-549; test: as above
How it was run: as §2

[12] = test system: MDA-MB-436; test: as above
How it was run: as §2

[13] = test system: CAL-148; test: as above
How it was run: as §2

[14] = test system: CAL-85-1; test: as above
How it was run: as §2

[15] = test system: MDA-MB-453; test: as above
How it was run: as §2

[16] = test system: Hs578T; test: as above
How it was run: as §2

[17] = test system: HCC1143; test: as above
How it was run: as §2

[18] = test system: MCF-10A; test: as above
How it was run: as §2

[19] = test system: SK-BR-3; test: as above
How it was run: as §2

[20] = test system: HCC1599; test: as above
How it was run: as §2

[21] = test system: MFM-223; test: as above
How it was run: as §2

| SMILES | normalised viability ([1]; 40 nM) [%] | normalised viability ([1]; 4000 nM) [%] | normalised viability ([1]; 40000 nM) [%] | normalised viability ([2]; 40 nM) [%] | normalised viability ([2]; 4000 nM) [%] | normalised viability ([2]; 40000 nM) [%] | drug sensitivity score [3] | drug sensitivity score [4] | drug sensitivity score [5] | drug sensitivity score [6] | drug sensitivity score [7] | drug sensitivity score [8] | drug sensitivity score [9] | drug sensitivity score [10] | drug sensitivity score [11] | drug sensitivity score [12] | drug sensitivity score [13] | drug sensitivity score [14] | drug sensitivity score [15] | drug sensitivity score [16] | drug sensitivity score [17] | drug sensitivity score [18] | drug sensitivity score [19] | drug sensitivity score [20] | drug sensitivity score [21] | normalised viability ([1]; 10 nM) [%] | normalised viability ([1]; 1000 nM) [%] | normalised viability ([1]; 10000 nM) [%] | normalised viability ([2]; 10 nM) [%] | normalised viability ([2]; 1000 nM) [%] | normalised viability ([2]; 10000 nM) [%] |
| --- | --- | --- | --- | --- | --- | --- | --- | --- | --- | --- | --- | --- | --- | --- | --- | --- | --- | --- | --- | --- | --- | --- | --- | --- | --- | --- | --- | --- | --- | --- | --- |
| CC[C@@H]1C(=O)OC[C@@H]1Cc1cncn1C [Pilocarpine] | 85.2 | 107 | 113 | 106 | 115 | 136 | 0 | 0 | 0 | 0 | 0 | 0 | 0 | 0 | 0 | 0 | 0 | 0 | 0 | 0 | 0 | 0 | 0 | 0 | 0 |  |  |  |  |  |  |
| Cn1cc(C2=Nc3cc(NC(=O)C(N)C4CCCCC4)cc4c3C2=CNNC4=O)cn1 (configuration not stated) |  |  |  |  |  |  | 6.46 | 6.28 | 5.76 | 4.78 | 3.25 | 2.68 | 7.52 | 14.4 | 14.6 | 9.88 | 0 | 13.3 | 14.3 | 12.1 | 7.81 | 2.96 | 19.1 | 20.3 | 12.2 | 96.5 | 57.2 | 27 | 81.8 | 13.8 | 10.8 |
| COc1cc2c(cc1O)CC[C@@H]1[C@@H]2CC[C@]2(C)[C@@H](O)CC[C@@H]12 [2-methoxyestradiol] |  |  |  |  |  |  | 5.9 | 4.15 | 5.34 | 0 | 0.369 | 2.41 | 5.78 | 4.21 | 10.1 | 6.35 | 2.17 | 5.61 | 5.52 | 7.49 | 3.67 | 0 | 5.71 | 2.6 | 4.75 | 105 | 61.4 | 24.2 | 97.6 | 101 | 20.2 |
| CC(C)(C)c1cnc(CSc2cnc(NC(=O)C3CCNCC3)s2)o1 [SNS-032] |  |  |  |  |  |  | 17.8 | 14.8 | 28.6 | 17.2 | 21.6 | 18.9 | 25.3 | 28.1 | 27 | 23.7 | 10.3 | 25.1 | 17.7 | 21.8 | 24.3 | 18.6 | 25.6 | 18.5 | 17.1 | 84.1 | 12.9 | 11.8 | 98.4 | 5.34 | 4.75 |
| CC(=O)c1c(C)c2cnc(Nc3ccc(N4CCNCC4)cn3)nc2n(C2CCCC2)c1=O |  |  |  |  |  |  |  |  |  |  |  |  |  |  |  |  |  |  |  |  |  |  |  |  |  | 79.4 | 65.2 | 57.4 | 100 | 110 | 63.5 |
| C[C@]1(O)C[C@@H](c2nc(-c3ccc4ccc(-c5ccccc5)nc4c3)c3c(N)nccn32)C1 [OSI-906] |  |  |  |  |  |  |  |  |  |  |  |  |  |  |  |  |  |  |  |  |  |  |  |  |  | 96.6 | 84.2 | 56.2 | 88.7 | 79.7 | 54.3 |
| O=NN(CCCl)C(=O)NCCCl [Carmustine] |  |  |  |  |  |  | 0 | 0 | 0 | 0 | 0 | 0 | 0 | 0 | 0 | 0 | 0 | 0 | 0 | 0 | 0 | 0 | 0 | 0 | 0 | 98.9 | 83 | 82.5 | 100 | 123 | 96.9 |
| Cc1sc2c(c1C)C(c1ccc(Cl)cc1)=N[C@@H](CC(=O)OC(C)(C)C)c1nnc(C)n1-2 [(+)JQ1] |  |  |  |  |  |  | 7.3 | 4.19 | 1.66 | 3.6 | 6.56 | 9.61 | 3.61 | 9.62 | 13.3 | 2.63 | 6.21 | 12.7 | 10.7 | 12.8 | 5.11 | 9.62 | 5.66 | 0 | 8.38 | 83.2 | 47.7 | 49.2 | 117 | 53.9 | 51.8 |
| Nc1ncn([C@@H]2O[C@H](CO)[C@@H](O)[C@H]2O)c(=O)n1 [Azacitidine] |  |  |  |  |  |  | 1.74 | 0 | 0 | 0 | 2.36 | 0 | 0 | 12.1 | 5.75 | 4.78 | 0 | 0 | 0 | 0 | 0 | 0 | 0 | 1.27 | 0 | 80.9 | 88.9 | 60.9 | 92 | 106 | 66.6 |
| CC1(C)CNc2cc(NC(=O)c3cccnc3NCc3ccncc3)ccc21 [Motesanib] |  |  |  |  |  |  | 0 | 0 | 0 | 0 | 0 | 0 | 0 | 0.164 | 0 | 0 | 0 | 0 | 0 | 0 | 0 | 0 | 0 | 0 | 0 | 74.4 | 78.3 | 82.4 | 83.3 | 88.9 | 78.9 |
| CC(=O)N(O)CCCCCNC(=O)CCC(=O)N(O)CCCCCNC(=O)CCC(=O)N(O)CCCCCN [Deferoxamine] |  |  |  |  |  |  | 0 | 0 | 3.33 | 3.29 | 2.75 | 5.21 | 0 | 7.85 | 5.68 | 4.73 | 9.03 | 0 | 0 | 2.31 | 3.11 | 0 | 4.14 | 1.95 | 0 |  |  |  |  |  |  |
| CC1=C2C[C@H]3[C@@H](CC=C4C[C@@H](O)CC[C@@]43C)[C@@H]2CC[C@]12O[C@@H]1C[C@H](C)CN[C@H]1[C@H]2C [Cyclopamine] |  |  |  |  |  |  | 0 | 0 | 0 | 0 | 0 | 0 | 0 | 0 | 0 | 0 | 0 | 0 | 0 | 0 | 0 | 0 | 0 | 0 | 0 | 98.1 | 98.4 | 97.3 | 103 | 123 | 103 |
| COc1cc(F)c(F)c(Nc2ccc(I)cc2F)c1NS(=O)(=O)C1(C[C@H](O)CO)CC1 [RDEA119] |  |  |  |  |  |  |  |  |  |  |  |  |  |  |  |  |  |  |  |  |  |  |  |  |  | 103 | 64.5 | 47.3 | 110 | 81.8 | 100 |
| CC(=O)c1c(C)c2cnc(Nc3ccc(N4CCNCC4)cn3)nc2n(C2CCCC2)c1=O [Palbociclib] |  |  |  |  |  |  | 4.46 | 3.04 | 0.79 | 0 | 0 | 0 | 0 | 4.56 | 0 | 0 | 0 | 0 | 0 | 0.478 | 0 | 3.99 | 5.42 | 0 | 5.89 |  |  |  |  |  |  |
| COc1cc(F)c(F)c(Nc2ccc(I)cc2F)c1NS(=O)(=O)C1(C[C@H](O)CO)CC1 [Refametinib] |  |  |  |  |  |  | 8.51 | 7.28 | 0 | 4.08 | 12.7 | 26.1 | 9.15 | 7.13 | 2.33 | 4.19 | 2.69 | 10.4 | 0 | 4.13 | 2.8 | 23.6 | 0 | 0 | 5.74 |  |  |  |  |  |  |
| Cc1ccc([N+](=O)[O-])cc1S(=O)(=O)N(C)/N=C/c1cnc2ccc(Br)cn12 [PIK-75] |  |  |  |  |  |  | 28.5 | 22.4 | 30 | 24 | 25.5 | 29.1 | 30.5 | 30.2 | 29 | 27.1 | 19 | 29 | 23 | 29 | 24 | 28.4 | 30.4 | 23.1 | 26 |  |  |  |  |  |  |
| C[C@]1(O)C[C@@H](c2nc(-c3ccc4ccc(-c5ccccc5)nc4c3)c3c(N)nccn32)C1 [Linsitinib] |  |  |  |  |  |  | 3.89 | 1.76 | 0 | 0 | 5.33 | 0 | 0 | 4.62 | 0 | 0.173 | 0 | 2.88 | 2.26 | 0 | 1.82 | 12.5 | 6.62 | 2.37 | 0 |  |  |  |  |  |  |
| CC1(C)CCC(CN2CCN(c3ccc(C(=O)NS(=O)(=O)c4ccc(NCC5CCOCC5)c([N+](=O)[O-])c4)c(Oc4cnc5[nH]ccc5c4)c3)CC2)=C(c2ccc(Cl)cc2)C1 [ABT-199] |  |  |  |  |  |  | 0 | 0 | 1.71 | 0 | 0 | 0 | 0 | 0.128 | 0 | 0 | 0 | 0 | 0 | 0 | 0 | 0 | 0 | 0 | 0 |  |  |  |  |  |  |
